Laboratory results reported in publication PMC7359744 (ACS chemical neuroscience, 2020).

Key:
[1] = system: human μ-opioid receptor β-arrestin-2; assay type: cell-based
male C57 BL/6 mice = assay: animal or person; assay type: in vivo
[2] = target: human κ-opioid receptor (OPRK1) (Homo sapiens, UniProt P41145); assay type: cell-based; details: read-out: KOR EC50 ± SEM
human κ-opioid receptor (OPRK1), sequence (P41145 whole entry): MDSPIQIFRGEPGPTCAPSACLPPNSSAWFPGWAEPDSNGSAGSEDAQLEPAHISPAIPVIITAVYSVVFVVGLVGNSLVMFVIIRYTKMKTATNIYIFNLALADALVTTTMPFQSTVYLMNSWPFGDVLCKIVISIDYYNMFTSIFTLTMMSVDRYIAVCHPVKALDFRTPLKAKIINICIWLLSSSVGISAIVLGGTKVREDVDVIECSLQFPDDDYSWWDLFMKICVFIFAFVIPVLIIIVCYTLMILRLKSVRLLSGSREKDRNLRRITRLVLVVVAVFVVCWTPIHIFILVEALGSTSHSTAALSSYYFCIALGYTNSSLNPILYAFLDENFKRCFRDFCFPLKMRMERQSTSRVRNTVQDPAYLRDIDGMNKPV

| Structure (SMILES) | Bias Factor [1] | β-arrestin recruitment % Efficacy [1] | ED50 (male C57 BL/6 mice; Mus musculus, 24 h, read-out: antinociceptive ED50, day 1) | antinociceptive tolerance on day 9 compared to day 1 (male C57 BL/6 mice; mouse, in vivo, sc) | onset of tolerance (male C57 BL/6 mice; mouse, in vivo, sc) | EC50 [2] | antinociceptive ED50, day 1 (male C57 BL/6 mice; mouse, in vivo) | antinociceptive ED50, day 9 (male C57 BL/6 mice; mouse, in vivo) |
| --- | --- | --- | --- | --- | --- | --- | --- | --- |
| C[C@@H](NC(=O)[C@@H](N)Cc1ccc(O)cc1)C(=O)NCC(=O)N(C)[C@@H](Cc1ccccc1)C(=O)NCCO [DAMGO] | 1 | 42 ± 5 (97) % |  |  |  |  |  |  |
| CN1CC[C@]23c4c5ccc(O)c4O[C@H]2[C@@H](O)C=C[C@H]3[C@H]1C5 [Morphine] |  |  | 6.43 ± 0.27 mg/kg | significant induction of tolerance | 5 days |  |  |  |
| COC(=O)[C@@H]1C=C(OC(=O)c2ccccc2)C(=O)[C@H]2[C@@]1(C)CC[C@H]1C(=O)O[C@H](c3ccoc3)C[C@]21C [Compound 1, kurkinorin] |  |  |  | reduced tolerance compared to morphine |  | > 10 µM | 5 ± 0.51 mg/kg | 7.9 ± 0.11 mg/kg |
